Measurements published in PMC6466617 (The AAPS journal, 2019).

Molecular target: T1, monocarboxylate transporter 1 (MCT1) (Mus musculus, UniProt P53986)
T1 sequence (P53986 1-493): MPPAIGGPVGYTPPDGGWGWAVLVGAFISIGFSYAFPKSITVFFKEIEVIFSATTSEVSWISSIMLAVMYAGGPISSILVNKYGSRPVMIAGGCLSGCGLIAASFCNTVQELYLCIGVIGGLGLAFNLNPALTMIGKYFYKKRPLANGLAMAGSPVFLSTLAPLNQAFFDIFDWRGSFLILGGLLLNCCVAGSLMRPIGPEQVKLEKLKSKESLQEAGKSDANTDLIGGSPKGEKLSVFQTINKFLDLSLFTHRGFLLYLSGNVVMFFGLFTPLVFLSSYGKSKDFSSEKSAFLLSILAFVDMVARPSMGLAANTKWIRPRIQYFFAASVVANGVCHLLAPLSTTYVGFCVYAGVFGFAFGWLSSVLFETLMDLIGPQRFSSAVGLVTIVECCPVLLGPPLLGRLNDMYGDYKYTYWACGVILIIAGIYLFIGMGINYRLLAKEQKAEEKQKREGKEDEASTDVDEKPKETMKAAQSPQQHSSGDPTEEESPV
Assay: inhibition of [3H]-L-lactate uptake in 4T1 cells at […], pH […], with washout
Type: cell-based
Details: 4T1, read-out: % inhibition at 200 nM

inhibition at 0.2 µM: 83.5%
SMILES: Cc1[nH]nc(C(F)(F)F)c1Cc1sc2c(c1C(=O)N1C[C@](C)(O)CO1)c(=O)n(C)c(=O)n2C(C)C [AZD3965]
